Data reported in patent publication US7314720B2, “Method of diagnosing non-alcoholic steatohepatitis (nash) using molecular markers” (One Way Liver Genomic, S.L., priority 2002, dated 2008).

Tested on: PHB1
Assay: PHB1 level regulation in cultured rat hepatocytes (Western blot)
Assay type: cell-based
Details: for effect on PHB1 levels: 24 h incubation under standard conditions, 100 μM methionine or 4 mM AdoMet in culture media
Description: FIG. 5 illustrates PHB1 level regulation by AdoMet in cultured rat hepatocytes. PHB1 levels were measured in rat hepatocytes cultured for 12 or 24 hours in the presence or absence of 100 μM methionine, 4 mM AdoMet or 20 mM cycloleucine. Liver extracts (15 μg/lane) were analyzed by Western blotting using specific antibodies. To ensure equal loading, the membranes were stained with red Ponceau. A representative blot from three independent experiments is shown. Hepatocytes were isolated from male Wistar rats (200-250 g) by perfusion with collagenases, as previously described ([…]., et al., Gastroenterology, 1998, 114:364-371). Once isolated, hepatocytes were cultured according to García-Trevijano et al. […] Cell viability was measured by trypan blue exclusion, and no significant differences were observed between the controls and any of the different treatments performed in this study. Protein extraction and western blotting were performed as previously described ([…]., et al., Oncogene, 1995, 10:963-971; Ruiz, F., et al., Hepatology, 1998, 28:1051-1057). Briefly, equal amounts of protein (15 μg) were resolved in SDS/12.5% polyacrylamide gels. Proteins were electrophoretically transferred to nitrocellulose membranes. Membranes were probed with anti-MAT (Ruiz, F., et al., Hepatology, 1998, 28:1051-1057), anti-PHB1, anti-β ATPase and anti-COX I and II. A secondary antibody conjugated to horseradish peroxidase was used. Blots were developed by chemiluminescence (Dupont).

SMILES	effect on PHB1 levels	decrease of PHB1 in the absence of methionine (exogenous addition of 4 mM AdoMet after 12 hours culture in the absence of methionine)	down-regulation of PHB1 (20 mM CL added to culture medium) [%]
C[S+](CC[C@H](N)C(=O)[O-])C[C@H]1O[C@@H](n2cnc3c(N)ncnc32)[C@H](O)[C@@H]1O (stereo partly shown) [AdoMet, S-adenosylmethionine]	no effect	prevented the decrease of PHB1	–
NC1(C(=O)O)CCCC1 [CL, cycloleucine]	–	–	55
CSCC[C@H](N)C(=O)O [methionine]	no effect	–	–
